The text below walks through data of patent publication US20210388012A1, “METHODS AND COMPOSITIONS FOR PRODRUG FORMS OF SPECTINOMYCIN AND SPECTINAMIDE ANALOGS” (priority 2018, published 2021).

The subject of one series is M. tuberculosis H37Rv. The experiment in a line: Minimum inhibitory concentration (MIC), microbroth dilution. The settings on record: Mycobacterium tuberculosis, 168 h; M. tuberculosis H37Rv, 7 days, 37° C.; read-out: MIC (H37Rv). It counts as cell-based. On the technique in general: Broth dilution looks for growth in wells or tubes with falling amounts of substance.
For series [1], the target named is Mycobacterium smegmatis 70S bacterial ribosomes. The experiment in a line: Ribosomal inhibition assay (luciferase-based protein synthesis inhibition). Conditions: purified M. smegmatis 70S ribosomes, firefly luciferase mRNA. It counts as biochemical. The procedure:
In vitro activity was also assessed using a ribosomal inhibition assay. Briefly, luciferase-based protein synthesis inhibition assays were performed in translation reaction as described previously (Bruell, et al. Biochemistry. 2008 47 (34), 8828-8839), using purified Mycobacterium smegmatis 70S bacterial ribosomes and firefly luciferase mRNA prepared in vitro using T7 RNA polymerase. IC50 values represent the drug concentration that inhibits luciferase activity by 50%.

Series [2] concerns M. tuberculosis Erdman (TMCC107). In words: Murine model of acute TB infection. In kind it is in vivo. Conditions: BALB/c mice, subcutaneous injection 400 mg/kg daily, 12 consecutive days.
A short description of series [3]: Single ascending maximum tolerated dose study in rat. In kind it is in vivo. Conditions: female, Sprague-Dawley, rat, in vivo, iv. Here is the method:
Several compounds were assessed in single ascending maximum tolerated studies. The compounds assessed were 1810; 3408, a prodrug form of compound 1810; 1599, a chloro homologue of compound 1810; and gentamicin, an antimicrobial associated with ototoxicity. The study was carried out in female Sprague-Dawley rats (n=3 per group). All the drug solutions were prepared in water and PLASMA-LYTE A (50:50; […] was obtained from Baxter Healthcare Corporation, Deerfield, Ill.). Each group of rats were fasted overnight with access to water aJ libitum and a fixed volume (2 mL) of drug-containing solution was administered via the jugular vein catheter. Food was withheld for 3 h post dosing. Different phases of the study were classified on five different speeds of i.v, administration; Phase 1: 5 sec, Phase 2: 30 sec, Phase 3: 5 min, Phase 4: 15 min, Phase 5: 30 min. In the first and second phases, a set of predefined dose levels: 10, 25, 50, 75, 100, 150, 300, 350, 400, 450 and 500 mg/kg. Escalation to the next higher dose was conditional upon absence of signs of acute toxicity following the immediate lower dose over a 24 h period. All animals were monitored by visual inspection focused on focus on changes in skin, fur, eyes, and also respiratory, circulatory, autonomic and central nervous systems, along with somatomotor activity and behavior pattern, including tremors, convulsions, salivation, diarrhea, lethargy, sleep and coma. A dose level was deemed an MTD if […] of acute toxicity were observed and that dose was chosen for the second phase of the study where the process was repeated to determine a toxic dose. For third, fourth and fifth phases, dosing solution was infused by a Instech tethering system (Instech Laboratories Inc., Plymouth Meeting, Pa.) where the animal is freely moving within its cage, the catheter connection is held in place by a vascular access harness and a swivel system, and the drug administration is performed via a Harvard Apparatus programmable syringe pump. After dosing, the tether was removed immediately after completion of the infusion and the catheter was flushed with (100 μL) PlasmaLyte A. Surviving animals from the previous dose with no signs of toxicity were re-used in either phases of these studies upon allowing a one day drug washout period.

A short description of series [4]: Pharmacokinetic study in rat. It counts as in vivo, Sprague-Dawley rats. The settings on record: male, Sprague-Dawley, in vivo, iv, 10 mg/kg. Here is the method: LC-MS Method 1. Quantitative determination of the amount of a disclosed compound present in blood, plasma, or urinary can be determined by LC-MS/MS methods. Briefly, a suitable method involves use of calibrants (0.976, 1.95, 3.91, 7.81, 15.63, 31.25, 62.5, 125, 250, 500, 1000 ng/mL) were in sample matrix (e.g., rat plasma, blood or urine). A separate solution of disclosed compound (independent of calibrants) is used to prepare quality controls. Appropriate volumes of working solutions are added to the sample matrix to yield the final concentrations of 1, 50, 1000 ng/mL. Linearity for calibrants in duplicate is assessed by subjecting the spiked concentrations and the respective peak areas to least-square linear regression analysis with and without intercepts, and a weighted least-square regression (1/x or 1/x^2). The lowest limit of quantitation (LLOQ) in the standard curve measured with acceptable accuracy and precision for a disclosed compound from rat plasma has been previously established as 0.976 ng/mL for a representative compound, 1810. All samples are precipitated by the addition of 4-volumes (100 μL) of IS, 1369 (10 ng/mL) in methanol to a volume (25 μL) of plasma/urine test sample. The samples are vortexed (Fisher scientific, USA) for 30 sec and centrifuged at 10,000×g for 10 min at 4° C. and the supernatants are collected for LC-MS/MS analysis. Chromatographic separation is carried out using a Shimadzu Nexera XR (LC-20ADXR) liquid chromatograph (Shimadzu Corporation, USA) consisting of two pumps, online degasser, system controller and an auto sampler. Mobile phase consisting of a) water with 1.6% nonafluoropentanoic acid and 0.7% formic acid b) 90% acetonitrile with 0.8% nonafluoropentanoic acid and 0.35% formic acid can be used at a flow rate of 0.5 rnLirnin in gradient mode. A Waters® Symmetry ® 3.5μ C8, 50×2.1 mm column (Waters, Milford, Mass.) is used for the separation. Samples (5 μL) are injected on column and the eluate is provided directly to an API 5500 triple quadruple mass spectrometer (Applied Biosystems, Foster City, Calif.) equipped with a turbospray ion source operated in the positive ion mode. The optimized multiple reactions monitoring (MRM) conditions for 3408 (549.2A207.1), 1810 (469.2^207.1) and IS (418.3^207.1) are monitored with a declustering potential of 45 V and collision energy of 25 eV. Data are acquired and processed with Analyst software version 1.6.2 (Applied Biosystems, Foster City, Calif.).
Pharmacokinetic assessment of the disclosed compounds can be determined in a rat model as described herein. Briefly, catheterized male Sprague-Dawley rats from Harlan Bioscience (Indianapolis, Ind.), weighing 200-250 g, are kept at a 12 h light/dark cycle with access to food and water ad libitum. The procedures are approved by the Institutional Animal Care and Use Committee of the University of Tennessee Health Science Center. Formulations of a disclosed compound are prepared in water (50%) and PlasniaLyte A (50%). Test compound can be administered either via intravenous route (10 mg/kg) via femoral vein catheter with the study conducted using a group of 6 rats. Blood (250 μL) was collected via the jugular vein catheter at 0.08, 0.25, 0.5, 0.75, 1, 1.5, 2, 4, 6, 8, 10, 24 and 48 h after drug administration. Plasma was immediately separated by centrifugation (6,000×g for 10 min at 4° C.) and stored at −70° C. until analysis. The plasma concentration was determined as described herein above in LC-MS Method 1, and plasma concentration-time courses were fitted to a non-compartmental model using Phoenix WinNonlin 7.0 (Certara L. P., Princeton, NJ). Area under the concentration-time profile curve (AUC) was calculated by the log trapezoidal rule by log-linear regression and extrapolated to infinity by addition of the value Ct/λZ, where Ct is the concentration at the last time point, and λZ the terminal slope (determined by linear regression) of the log concentration-time curve. […]

In brackets after ≈: the same amount, converted by molar mass. Like-named read-outs stand apart in the source and are kept apart here.

For orientation: MIC means the lowest concentration that inhibits growth of the organism. As a reminder, the MTD is the highest dose tested that stayed within the study's limit of toxicity. A word on the AUC: it is concentration integrated over time. A high value points to high exposure. For orientation: Cmax means the peak of the concentration-time curve. The Vss is the apparent volume that relates the amount in the body to the concentration in plasma or blood. Lower therefore signals confinement near the circulation. The term t½ denotes how long it takes for the measured level to halve. A low value points to fast loss. As for `CN[C@@H]1[C@H](O)[C@H](NC)[C@H]2O[C@]3(O)[C@H](O[C@@H]2[C@H]1O)O[C@H](C)C[C@H]3NC(=O)Cc1ccc(O)cn1` [Compound 1810, 2-(5-hydroxypyridin-2-yl)-N-((2R,4R,4aS,5aR,6S,7S,8R,9S,9aR,10aS)-4a,7,9-trihydroxy-2-methyl-6,8-bis(methylamino)decahydro-2H-benzo[b]pyrano[2,3-e] [1,4]dioxin-4-yl)acetamide], the MIC in the series with M. tuberculosis H37Rv was found to be 0.8 µg/mL (≈ 1.71 µM). Besides, the “IC50 (M. smegmatis)” value in series [1] is 0.84 µg/mL (≈ 1.79 µM). For the same molecule, in series [2], the “Efficacy in mouse model of acute tuberculosis infection (lung CFU, FIG. 1)” value was “similarly active”. The same molecule showed an MTD at 24 h in series [3] of 200 to 350 mg/kg. Besides, the MTD at 24 h in series [3] (female Sprague-Dawley rats, 5 second IV bolus, read-out: MTD) stood at 200 mg/kg. Also, the MTD at 24 h in series [3] (female Sprague-Dawley rats, 30 second IV bolus, read-out: MTD) was found to be 200 mg/kg. Moreover, in series [3] (female Sprague-Dawley rats, 5 minute IV infusion, read-out: MTD), the MTD at 24 h stood at 350 mg/kg. The MTD at 24 h in series [3] (female Sprague-Dawley rats, 15 minute IV infusion, read-out: MTD) was greater than 500 mg/kg. Also, in series [4], the AUC came to 22000 ng·h/mL, the CL is 7.72 mL/min/kg, the Cmax came out at 47000 ng/mL and the Vss is 0.494 L/kg. In series [4], this molecule gave a t½ of 23.5 min.
